Test results from ChEMBL document CHEMBL4507302, “Data for DCP probe TP-020” (2021).

Experiments:
[1] = biological target: G protein-coupled receptor kinase 3 (Homo sapiens) (UniProt P35626); conditions: Compound concentration 1000.0 nM
[2] = biological target: Transient receptor potential cation channel subfamily M member 6 (Homo sapiens) (UniProt Q9BX84); conditions: Compound concentration 1000.0 nM
[3] = biological target: Tyrosine-protein kinase receptor UFO (Homo sapiens) (UniProt P30530); conditions: Compound concentration 1000.0 nM
[4] = biological target: Serine/threonine-protein kinase PAK 6 (Homo sapiens) (UniProt Q9NQU5); conditions: Compound concentration 1000.0 nM
[5] = biological target: Serine/threonine-protein kinase NLK (Homo sapiens) (UniProt Q9UBE8); conditions: Compound concentration 1000.0 nM
[6] = biological target: Serine/threonine-protein kinase Sgk2 (Homo sapiens) (UniProt Q9HBY8); conditions: Compound concentration 1000.0 nM
[7] = biological target: Receptor-interacting serine/threonine-protein kinase 1 (Homo sapiens) (UniProt Q13546); conditions: Compound concentration 1000.0 nM
[8] = biological target: Serine/threonine-protein kinase BRSK2 (Homo sapiens) (UniProt Q8IWQ3); conditions: Compound concentration 1000.0 nM
[9] = biological target: Serine/threonine-protein kinase MRCK beta (Homo sapiens) (UniProt Q9Y5S2); conditions: Compound concentration 1000.0 nM
Chain of Serine/threonine-protein kinase MRCK beta (Homo sapiens) (Q9Y5S2 whole entry): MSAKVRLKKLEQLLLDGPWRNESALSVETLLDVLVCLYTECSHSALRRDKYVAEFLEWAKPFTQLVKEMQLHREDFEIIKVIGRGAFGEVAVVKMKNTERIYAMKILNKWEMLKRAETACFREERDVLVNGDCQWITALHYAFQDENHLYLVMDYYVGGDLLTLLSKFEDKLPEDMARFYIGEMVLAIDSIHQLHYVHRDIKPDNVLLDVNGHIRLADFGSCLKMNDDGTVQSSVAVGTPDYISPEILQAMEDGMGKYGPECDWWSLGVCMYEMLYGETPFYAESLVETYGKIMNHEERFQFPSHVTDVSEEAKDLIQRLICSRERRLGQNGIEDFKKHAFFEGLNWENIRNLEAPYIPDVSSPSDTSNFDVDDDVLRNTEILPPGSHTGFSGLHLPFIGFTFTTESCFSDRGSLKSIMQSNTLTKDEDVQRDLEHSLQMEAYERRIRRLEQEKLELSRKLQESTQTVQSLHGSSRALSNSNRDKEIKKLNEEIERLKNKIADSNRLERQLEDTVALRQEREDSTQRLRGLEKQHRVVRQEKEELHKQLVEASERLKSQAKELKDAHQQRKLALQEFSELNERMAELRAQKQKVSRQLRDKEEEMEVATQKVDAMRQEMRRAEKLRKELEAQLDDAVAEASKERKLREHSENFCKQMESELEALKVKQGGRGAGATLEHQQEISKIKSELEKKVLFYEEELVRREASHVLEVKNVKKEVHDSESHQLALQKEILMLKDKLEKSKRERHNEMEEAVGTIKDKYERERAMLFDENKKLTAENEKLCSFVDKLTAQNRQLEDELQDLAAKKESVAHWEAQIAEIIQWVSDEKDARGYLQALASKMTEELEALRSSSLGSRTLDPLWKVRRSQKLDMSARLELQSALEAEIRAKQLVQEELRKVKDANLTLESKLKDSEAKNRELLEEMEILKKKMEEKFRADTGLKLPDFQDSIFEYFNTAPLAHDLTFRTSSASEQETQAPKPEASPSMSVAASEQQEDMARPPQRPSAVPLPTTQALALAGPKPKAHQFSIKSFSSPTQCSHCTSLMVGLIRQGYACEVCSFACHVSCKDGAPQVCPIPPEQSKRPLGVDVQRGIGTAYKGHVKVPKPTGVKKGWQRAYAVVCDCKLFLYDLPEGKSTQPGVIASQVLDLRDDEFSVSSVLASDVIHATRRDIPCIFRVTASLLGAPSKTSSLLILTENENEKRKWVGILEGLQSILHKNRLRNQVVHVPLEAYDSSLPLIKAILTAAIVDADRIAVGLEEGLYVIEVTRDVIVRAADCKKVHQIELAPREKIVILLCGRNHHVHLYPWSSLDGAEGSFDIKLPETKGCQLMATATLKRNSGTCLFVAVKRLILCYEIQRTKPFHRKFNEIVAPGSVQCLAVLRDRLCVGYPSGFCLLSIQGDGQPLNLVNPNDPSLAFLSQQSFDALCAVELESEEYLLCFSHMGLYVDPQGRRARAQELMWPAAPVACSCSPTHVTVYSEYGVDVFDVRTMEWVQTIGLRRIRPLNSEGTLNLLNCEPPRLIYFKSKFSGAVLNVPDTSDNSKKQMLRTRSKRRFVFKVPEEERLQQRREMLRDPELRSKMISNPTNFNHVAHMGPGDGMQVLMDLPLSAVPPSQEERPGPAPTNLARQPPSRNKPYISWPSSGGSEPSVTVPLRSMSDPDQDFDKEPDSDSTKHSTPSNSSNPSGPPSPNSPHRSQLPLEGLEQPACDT

[10] = biological target: Serine/threonine-protein kinase Nek2 (Homo sapiens) (UniProt P51955); conditions: Compound concentration 1000.0 nM
[11] = biological target: Myosin-IIIb (Homo sapiens) (UniProt Q8WXR4); conditions: Compound concentration 1000.0 nM
[12] = biological target: Dual specificity protein kinase TTK (Homo sapiens) (UniProt P33981); conditions: Compound concentration 1000.0 nM
[13] = biological target: Cyclin-dependent kinase 14 (Homo sapiens) (UniProt O94921); conditions: Compound concentration 1000.0 nM
[14] = biological target: Calcium/calmodulin-dependent protein kinase type IV (Homo sapiens) (UniProt Q16566); conditions: Compound concentration 1000.0 nM
[15] = biological target: Calcium/calmodulin-dependent protein kinase kinase 2 (Homo sapiens) (UniProt Q96RR4); conditions: Compound concentration 1000.0 nM
[16] = biological target: Serine/threonine-protein kinase WNK2 (Homo sapiens) (UniProt Q9Y3S1); conditions: Compound concentration 1000.0 nM
Chain of Serine/threonine-protein kinase WNK2 (Homo sapiens) (Q9Y3S1 whole entry): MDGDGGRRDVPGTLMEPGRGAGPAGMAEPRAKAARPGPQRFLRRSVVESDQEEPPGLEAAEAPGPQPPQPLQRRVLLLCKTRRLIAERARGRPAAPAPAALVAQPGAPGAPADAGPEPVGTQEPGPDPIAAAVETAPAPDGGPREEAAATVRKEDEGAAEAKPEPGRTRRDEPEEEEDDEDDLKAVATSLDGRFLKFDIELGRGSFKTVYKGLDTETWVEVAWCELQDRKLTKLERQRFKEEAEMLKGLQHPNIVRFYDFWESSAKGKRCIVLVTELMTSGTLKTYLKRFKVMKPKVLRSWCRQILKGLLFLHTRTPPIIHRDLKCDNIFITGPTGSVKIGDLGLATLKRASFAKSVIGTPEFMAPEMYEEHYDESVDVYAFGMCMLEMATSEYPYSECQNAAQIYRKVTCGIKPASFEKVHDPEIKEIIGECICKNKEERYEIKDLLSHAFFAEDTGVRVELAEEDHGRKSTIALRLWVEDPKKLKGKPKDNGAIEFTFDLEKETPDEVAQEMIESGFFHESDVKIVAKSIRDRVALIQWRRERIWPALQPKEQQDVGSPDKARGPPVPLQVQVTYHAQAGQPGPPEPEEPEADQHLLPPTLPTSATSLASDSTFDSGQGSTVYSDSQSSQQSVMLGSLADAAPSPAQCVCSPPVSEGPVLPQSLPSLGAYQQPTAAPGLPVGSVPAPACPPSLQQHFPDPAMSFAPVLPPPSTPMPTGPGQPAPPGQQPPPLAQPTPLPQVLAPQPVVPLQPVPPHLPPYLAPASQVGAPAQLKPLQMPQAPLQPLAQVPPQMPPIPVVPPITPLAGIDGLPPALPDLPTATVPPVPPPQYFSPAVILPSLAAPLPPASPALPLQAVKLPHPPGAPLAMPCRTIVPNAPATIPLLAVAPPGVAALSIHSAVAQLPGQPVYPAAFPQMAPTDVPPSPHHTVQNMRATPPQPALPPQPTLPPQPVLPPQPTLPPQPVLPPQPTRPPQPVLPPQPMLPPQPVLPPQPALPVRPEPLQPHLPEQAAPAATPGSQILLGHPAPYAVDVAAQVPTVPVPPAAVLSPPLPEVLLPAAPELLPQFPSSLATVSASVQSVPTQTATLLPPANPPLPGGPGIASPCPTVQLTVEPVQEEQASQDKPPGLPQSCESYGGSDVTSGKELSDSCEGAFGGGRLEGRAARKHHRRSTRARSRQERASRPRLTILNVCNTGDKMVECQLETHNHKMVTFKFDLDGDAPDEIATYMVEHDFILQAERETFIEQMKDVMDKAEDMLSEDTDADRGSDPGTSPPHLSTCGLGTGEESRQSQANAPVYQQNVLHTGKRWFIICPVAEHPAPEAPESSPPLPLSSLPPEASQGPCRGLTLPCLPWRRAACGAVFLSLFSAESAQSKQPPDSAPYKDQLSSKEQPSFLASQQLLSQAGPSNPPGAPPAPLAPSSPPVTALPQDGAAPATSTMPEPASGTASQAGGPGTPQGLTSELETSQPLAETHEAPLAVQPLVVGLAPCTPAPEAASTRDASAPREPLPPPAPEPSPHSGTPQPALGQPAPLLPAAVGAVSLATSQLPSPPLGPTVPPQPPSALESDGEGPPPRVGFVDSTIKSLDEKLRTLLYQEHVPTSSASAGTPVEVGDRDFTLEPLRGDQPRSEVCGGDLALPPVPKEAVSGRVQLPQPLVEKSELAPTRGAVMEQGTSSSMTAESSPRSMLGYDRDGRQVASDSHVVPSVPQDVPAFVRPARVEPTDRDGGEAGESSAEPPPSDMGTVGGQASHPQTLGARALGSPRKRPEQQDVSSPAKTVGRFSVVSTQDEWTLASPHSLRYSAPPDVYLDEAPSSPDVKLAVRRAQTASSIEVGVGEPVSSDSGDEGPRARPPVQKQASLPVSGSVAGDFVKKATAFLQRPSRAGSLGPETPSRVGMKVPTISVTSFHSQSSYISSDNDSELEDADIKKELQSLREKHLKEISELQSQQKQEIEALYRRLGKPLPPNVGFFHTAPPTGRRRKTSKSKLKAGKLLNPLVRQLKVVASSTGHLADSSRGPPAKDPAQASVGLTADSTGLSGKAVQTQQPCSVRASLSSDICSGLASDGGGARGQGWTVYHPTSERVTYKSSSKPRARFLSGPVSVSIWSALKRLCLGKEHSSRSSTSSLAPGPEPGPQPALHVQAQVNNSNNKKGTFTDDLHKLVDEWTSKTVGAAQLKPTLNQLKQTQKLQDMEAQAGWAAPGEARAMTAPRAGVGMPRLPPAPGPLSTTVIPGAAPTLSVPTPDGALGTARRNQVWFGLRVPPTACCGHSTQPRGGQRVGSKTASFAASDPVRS

[17] = biological target: Myosin light chain kinase 2, skeletal/cardiac muscle (Homo sapiens) (UniProt Q9H1R3); conditions: Compound concentration 1000.0 nM
[18] = biological target: Mitogen-activated protein kinase 8 (Homo sapiens) (UniProt P45983); conditions: Compound concentration 1000.0 nM
Chain of Mitogen-activated protein kinase 8 (Homo sapiens) (P45983 whole entry): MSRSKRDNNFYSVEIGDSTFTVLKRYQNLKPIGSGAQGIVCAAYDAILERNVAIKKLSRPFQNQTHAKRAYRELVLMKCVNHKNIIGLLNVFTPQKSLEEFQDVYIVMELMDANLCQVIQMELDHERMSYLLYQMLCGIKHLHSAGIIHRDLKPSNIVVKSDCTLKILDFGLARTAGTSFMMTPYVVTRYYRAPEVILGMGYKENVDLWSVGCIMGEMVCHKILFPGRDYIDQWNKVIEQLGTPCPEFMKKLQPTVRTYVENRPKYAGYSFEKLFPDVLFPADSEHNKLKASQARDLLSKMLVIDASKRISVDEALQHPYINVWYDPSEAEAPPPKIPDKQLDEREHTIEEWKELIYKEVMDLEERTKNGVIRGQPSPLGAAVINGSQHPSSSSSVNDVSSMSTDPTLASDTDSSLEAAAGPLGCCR

[19] = biological target: Serine/threonine-protein kinase MAK (Homo sapiens) (UniProt P20794); conditions: Compound concentration 1000.0 nM
[20] = biological target: Cyclin-dependent kinase 11A (Homo sapiens) (UniProt Q9UQ88); conditions: Compound concentration 1000.0 nM
[21] = biological target: TGF-beta receptor type-1 (Homo sapiens) (UniProt P36897); conditions: Compound concentration 1000.0 nM
[22] = biological target: Mitogen-activated protein kinase kinase kinase kinase 2 (Homo sapiens) (UniProt Q12851); conditions: Compound concentration 1000.0 nM
[23] = biological target: Ribosomal protein S6 kinase beta-1 (Homo sapiens) (UniProt P23443); conditions: Compound concentration 1000.0 nM
[24] = biological target: Cyclin-dependent kinase 4 (Homo sapiens) (UniProt P11802); conditions: Compound concentration 1000.0 nM
[25] = biological target: Wee1-like protein kinase 2 (Homo sapiens) (UniProt P0C1S8); conditions: Compound concentration 1000.0 nM
[26] = biological target: Calcium/calmodulin-dependent protein kinase type II subunit alpha (Homo sapiens) (UniProt Q9UQM7); conditions: Compound concentration 1000.0 nM
[27] = tested on: Tyrosine-protein kinase ABL1 (Homo sapiens), P00519 [T315I]; conditions: Compound concentration 1000.0 nM
[28] = biological target: Ribosomal protein S6 kinase alpha-5 (Homo sapiens) (UniProt O75582); conditions: Compound concentration 1000.0 nM
[29] = tested on: Epidermal growth factor receptor (Homo sapiens), P00533 [UNDEFINED MUTATION]; conditions: Compound concentration 1000.0 nM
[30] = biological target: cAMP-dependent protein kinase catalytic subunit PRKX (Homo sapiens) (UniProt P51817); conditions: Compound concentration 1000.0 nM
[31] = biological target: Discoidin domain-containing receptor 2 (Homo sapiens) (UniProt Q16832); conditions: Compound concentration 1000.0 nM
[32] = biological target: Rho-associated protein kinase 1 (Homo sapiens) (UniProt Q13464); conditions: Compound concentration 1000.0 nM
[33] = biological target: 5-hydroxytryptamine receptor 2A (Homo sapiens) (UniProt P28223); conditions: Compound concentration 10.0 uM
[34] = biological target: Serine/threonine-protein kinase 3 (Homo sapiens) (UniProt Q13188); conditions: Compound concentration 1000.0 nM
[35] = biological target: Cyclin-dependent kinase 7 (Homo sapiens) (UniProt P50613); conditions: Compound concentration 1000.0 nM
[36] = biological target: Ribosomal protein S6 kinase alpha-6 (Homo sapiens) (UniProt Q9UK32); conditions: Compound concentration 1000.0 nM
[37] = biological target: Calcium/calmodulin-dependent protein kinase type 1D (Homo sapiens) (UniProt Q8IU85); conditions: Compound concentration 1000.0 nM
[38] = biological target: NUAK family SNF1-like kinase 2 (Homo sapiens) (UniProt Q9H093); conditions: Compound concentration 1000.0 nM
[39] = biological target: Tyrosine-protein kinase ITK/TSK (Homo sapiens) (UniProt Q08881); conditions: Compound concentration 1000.0 nM
[40] = tested on: Mast/stem cell growth factor receptor Kit (Homo sapiens), P10721 [L576P]; conditions: Compound concentration 1000.0 nM
[41] = tested on: Receptor-type tyrosine-protein kinase FLT3 (Homo sapiens), P36888 [R834Q]; conditions: Compound concentration 1000.0 nM
[42] = biological target: Ephrin type-B receptor 4 (Homo sapiens) (UniProt P54760); conditions: Compound concentration 1000.0 nM
[43] = biological target: Dual specificity mitogen-activated protein kinase kinase 1 (Homo sapiens) (UniProt Q02750); conditions: Compound concentration 1000.0 nM
[44] = tested on: Phosphatidylinositol 4,5-bisphosphate 3-kinase catalytic subunit alpha isoform (Homo sapiens), P42336 [M1043I]; conditions: Compound concentration 1000.0 nM
[45] = biological target: 5-hydroxytryptamine receptor 2B (Homo sapiens) (UniProt P41595); conditions: Compound concentration 10.0 uM

Chain of G protein-coupled receptor kinase 3 (Homo sapiens) (P35626 whole entry): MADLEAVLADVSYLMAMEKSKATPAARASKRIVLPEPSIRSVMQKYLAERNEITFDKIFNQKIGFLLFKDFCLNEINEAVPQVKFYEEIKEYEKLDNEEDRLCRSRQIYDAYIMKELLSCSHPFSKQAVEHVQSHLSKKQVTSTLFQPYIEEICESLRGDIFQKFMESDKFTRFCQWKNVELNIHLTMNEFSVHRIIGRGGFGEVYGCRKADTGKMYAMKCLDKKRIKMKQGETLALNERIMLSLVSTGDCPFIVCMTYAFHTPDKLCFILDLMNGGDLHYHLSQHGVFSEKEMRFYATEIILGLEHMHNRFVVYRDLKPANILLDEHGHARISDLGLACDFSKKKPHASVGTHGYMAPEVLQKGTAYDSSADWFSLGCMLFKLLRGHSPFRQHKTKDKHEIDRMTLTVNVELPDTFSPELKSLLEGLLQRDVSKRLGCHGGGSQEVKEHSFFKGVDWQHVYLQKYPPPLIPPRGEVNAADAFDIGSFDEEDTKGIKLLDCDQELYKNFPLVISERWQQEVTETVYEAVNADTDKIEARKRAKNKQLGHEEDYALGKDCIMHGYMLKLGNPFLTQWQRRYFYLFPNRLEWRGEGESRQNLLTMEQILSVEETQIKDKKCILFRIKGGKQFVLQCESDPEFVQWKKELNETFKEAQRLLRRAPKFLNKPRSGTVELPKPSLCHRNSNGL

Nc1cnc(N2CCc3cc(S(=O)(=O)Nc4c(F)cc(Cl)cc4F)cc(N4CCCC4=O)c32)nc1
inactive: residual activity [1] 100% | residual activity [2] 93% | residual activity [3] 69% | residual activity [4] 100% | residual activity [5] 100% | residual activity [6] 76% | residual activity [7] 92% | residual activity [8] 80% | residual activity [9] 95% | residual activity [10] 89% | residual activity [11] 100% | residual activity [12] 90% | residual activity [13] 100% | residual activity [14] 96% | residual activity [15] 100% | residual activity [16] 100% | residual activity [17] 87% | residual activity [18] 78% | residual activity [19] 96% | residual activity [20] 89% | residual activity [21] 100% | residual activity [22] 90% | residual activity [23] 83% | residual activity [24] 86% | residual activity [25] 93% | residual activity [26] 92% | residual activity [27] 98% | residual activity [28] 100% | residual activity [29] 100% | residual activity [30] 99% | residual activity [31] 100% | residual activity [32] 96% | inhibition [33] -2.82% | residual activity [34] 96% | residual activity [35] 100% | residual activity [36] 100% | residual activity [37] 97% | residual activity [38] 100% | residual activity [39] 100% | residual activity [40] 83% | residual activity [41] 77% | residual activity [42] 100% | residual activity [43] 100% | residual activity [44] 100% | inhibition [45] 12.9%

Cn1nc(C(F)(F)F)cc1-c1cnc(N2CCc3cc(S(=O)(=O)Nc4c(F)cc(Cl)cc4F)cc(N4CCCC4=O)c32)nc1 [TP-020]
inactive: residual activity [1] 82% | residual activity [2] 79% | residual activity [3] 93% | residual activity [4] 100% | residual activity [5] 98% | residual activity [6] 100% | residual activity [7] 100% | residual activity [8] 73% | residual activity [9] 94% | residual activity [10] 100% | residual activity [11] 100% | residual activity [12] 97% | residual activity [13] 100% | residual activity [14] 100% | residual activity [15] 93% | residual activity [16] 81% | residual activity [17] 100% | residual activity [18] 100% | residual activity [19] 100% | residual activity [20] 100% | residual activity [21] 100% | residual activity [22] 95% | residual activity [23] 78% | residual activity [24] 82% | residual activity [25] 100% | residual activity [26] 75% | residual activity [27] 82% | residual activity [28] 97% | residual activity [29] 100% | residual activity [30] 97% | residual activity [31] 80% | residual activity [32] 89% | inhibition [33] 8.54% | residual activity [34] 90% | residual activity [35] 75% | residual activity [36] 84% | residual activity [37] 99% | residual activity [38] 89% | residual activity [39] 97% | residual activity [40] 93% | residual activity [41] 97% | residual activity [42] 99% | residual activity [43] 95% | residual activity [44] 89% | inhibition [45] 24.7%
